From patent EP0008361A1, “Halogen-substituted thiophene derivatives and method for their preparation” (priority 1978, dated 1980) come the findings set out here.

Read-outs that look alike come from different tables or passages of the source.

The subject of series [1] is Spinnmilben (Tetranychus telarius). The series is described as follows: whole plant or invertebrate. The conditions noted are these: 144 h, read-out: Mortalitätsrate.
For series [2], the system named is Blattläuse (Aphis fabae). The conditions noted are these: evaluated after 24 hours.
The test system of series [3] is Stubenfliegen-Larven (Musca domestica). The series is described as follows: Breeding test with housefly larvae on treated nutrient medium. In kind it is in vivo. Particulars: development observed over one week; for mortality at 10 µg/mL / mortality at 25 µg/mL: Musca domestica, 168 h, read-out: Mortalitätsrate; for mortality at 10 µg/mL: Wirkstoffkonzentration 10 ppm; for mortality at 25 µg/mL: Wirkstoffkonzentration 25 ppm; for Mortalitätsrate: Wirkstoffkonzentration 50 ppm. How it is done:
Zuchtversuch mit Stubenfliegen-Larven (Musca domestica)
50 g eines Nährbodens aus Bäckerhefe, Trockenmilch, Wasser und Agar werden in warmem Zustand gründlich mit der wäßrigen Wirkstoffaufbereitung gemischt.
Nach dem Erkalten belegt man den Nährboden mit ca. 0,1 ml Fliegeneiern und beobachtet deren Entwicklung über eine Woche.

In series [4] the test system is Moskito-Larven (Aedes aegypti). As to the kind of experiment: whole plant or invertebrate. Particulars: 24 h, read-out: Mortalitätsrate.
The test system of series [5] is Wurzelgallennemathoden (Meloidogyne incognita). The series is described as follows: Action on root-knot nematodes, drench of tomato plants in infested compost soil. The series is classed as in vivo. Particulars: 30 ml drench, roots rated after 6 to 8 weeks. How it is done: Wirkung auf Wurzelgallennemathoden (Meloidogyne incognita)
Junge Tomatenpflanzen werden in je 500 g Komposterde gepflanzt, die stark mit Wurzelgallennematoden infiziert ist.
Nach 3 Tagen erfolgt die Behandlung mit der wäßrigen Wirkstoffaufbereitung durch Gießen von 30 ml Aufbereitung.
Nach 6 bis 8 Wochen bonitiert man die Wurzeln auf Gallenbildung.

The subject of series [6] is Moskito-Larven (Aedes aegypti). The conditions noted are these: Wirkstoffkonzentration 1 ppm; 4th instar larvae, 20°C, after 24 hours.
Series [7] deals with Spinnmilben (Tetranychus telarius). The conditions noted are these: assessed after 6 days.
Where [8] appears, read: Wirkstoffkonzentration 0,05 (unit not given).

For the compound `CCOP(=O)(SCc1csc(Cl)c1Cl)SCC(C)C` (stereo not drawn) [Wirkstoff I, O-Äthyl-S-isobutyl-S-(2,3-dichlor-thienyl-4-methyl)-dithiophosphat], in series [1], the mortality at 0.02 % stood at 100% and the mortality at 0.05 % worked out at 100%. For the same compound, in series [2] (Wirkstoffkonzentration 0,02 (unit not given)), the Mortalitätsrate is 90%. In series [2] (setting [8]), this compound displayed a Mortalitätsrate of 100%. In series [3], the mortality at 10 µg/mL turned out to be 80% and the mortality at 25 µg/mL is 100%.

Turning to `CCOP(=O)(SCc1csc(Cl)c1Cl)SC(C)CC` (stereo not shown) [Wirkstoff III], in series [4], the mortality at 0.25 µg/mL was found to be 100%, the mortality at 0.5 µg/mL came to 100% and the mortality at 1 µg/mL was 100%. In addition, in series [1], the mortality at 0.01 % stood at 100%, the mortality at 0.02 % was found to be 100% and the mortality at 0.05 % was 100%. Moreover, the Gallenbildung entry in series [5] (Wirkstoffkonzentration 0,05 %) was “keine Gallenbildung”. Besides, in series [3], the mortality at 10 µg/mL came to 100% and the mortality at 25 µg/mL was 100%.

`CNC(=O)CSP(=S)(OC)OC` [Wirkstoff V1, 0,0-Dimethyl-S-(N-methyl-carbamoylmethyl)-phosphordi-thioat]: in series [5] (Wirkstoffkonzentration 0,1 %), the Gallenbildung result is “unwirksam”.

Turning to `CCOP(=S)(OCC)SCc1ccsc1` [Wirkstoff V2, 0,0-Diäthyl-S-(tienyl-4-methyl)-dithiophosphat, reference compound], the Mortalitätsrate result in series [6], in series [7] (Wirkstoffkonzentration 0,05 %), in series [2] (setting [8]) and in series [3] was “unwirksam” throughout. The mortality at 0.1 % in series [1] amounted to 80%. For the same compound, the Gallenbildung entry in series [5] (Wirkstoffkonzentration 0,1 %) is recorded as “unwirksam”.

On to `CCOP(=S)(OCC)SCc1csc(Cl)c1Cl` [Wirkstoff V3, 0,0-Diäthyl-S-(2,3-dichlor-thienyl-4-methyl)-dithiophosphat], for which the Mortalitätsrate result in series [6], in series [7] (Wirkstoffkonzentration 0,1 %) and in series [3] was “unwirksam” in each case.
